Data reported in the supplement of paper PMC10307832.

How the values were obtained:
Experiment in all cases: relative viability (nuclei count vs DMSO), 5 days (fraction); higher = more cells survive
RU-SKI 43 + Phenformin = compound: CC[C@@H](C)CNCC(=O)N1CCC2=C([C@@H]1COC3=CC=CC(=C3)C)C=CS2 [RU-SKI 43] + N=C(N)NC(=N)NCCc1ccccc1 [Phenformin] (partner 250 µM)
How it was run: (§1)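 Lung cancer cell lines in 1536-well plates were dosed by pin tool the day after seeding, either with one drug alone or with a fixed anchor-drug dose plus five library-drug doses (not always all listed) in √10 steps. After 5 days, cells were fixed and their nuclei stained in one step (final 0.05% Triton X-100, 1% formaldehyde, 1 ug/ml Hoechst), then counted on 4× images. Relative viability is the nuclei count in treated wells divided by that in vehicle wells. Values are medians of duplicate plates.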

MK-8033 + Tozasertib = compound: Cn1cc(-c2cnc3ccc4ccc(CS(=O)(=O)NCc5ccccn5)cc4c(=O)c3c2)cn1 [MK-8033] + Cc1cc(Nc2cc(N3CCN(C)CC3)nc(Sc3ccc(NC(=O)C4CC4)cc3)n2)n[nH]1 [Tozasertib] (partner 0.1 µM)
How it was run: as §1

Irinotecan + Crizotinib = compound: CCc1c2c(nc3ccc(OC(=O)N4CCC(N5CCCCC5)CC4)cc13)-c1cc3c(c(=O)n1C2)COC(=O)[C@]3(O)CC [Irinotecan] + C[C@@H](Oc1cc(-c2cnn(C3CCNCC3)c2)cnc1N)c1c(Cl)ccc(F)c1Cl [Crizotinib] (partner 1 µM)
How it was run: as §1

Irinotecan + Phenformin = compound: CCc1c2c(nc3ccc(OC(=O)N4CCC(N5CCCCC5)CC4)cc13)-c1cc3c(c(=O)n1C2)COC(=O)[C@]3(O)CC [Irinotecan] + N=C(N)NC(=N)NCCc1ccccc1 [Phenformin] (partner 250 µM)
How it was run: as §1

## HCC-15
RU-SKI 43 + Phenformin; first compound 0.1 µM
  relative viability: 0.49
RU-SKI 43 + Phenformin; first compound 0.3162 µM
  relative viability: 0.53
RU-SKI 43 + Phenformin; first compound 1 µM
  relative viability: 0.55
RU-SKI 43 + Phenformin; first compound 3.162 µM
  relative viability: 0.511
RU-SKI 43 + Phenformin; first compound 10 µM
  relative viability: 0.521
MK-8033 + Tozasertib; first compound 0.02 µM
  relative viability: 0.498
MK-8033 + Tozasertib; first compound 0.06325 µM
  relative viability: 0.3
MK-8033 + Tozasertib; first compound 0.2 µM
  relative viability: 0.35
MK-8033 + Tozasertib; first compound 0.6325 µM
  relative viability: 0.427
MK-8033 + Tozasertib; first compound 2 µM
  relative viability: 0.352
Irinotecan + Crizotinib; first compound 0.6325 µM
  relative viability: 0.479
Irinotecan + Crizotinib; first compound 2 µM
  relative viability: 0.319
Irinotecan + Crizotinib; first compound 6.325 µM
  relative viability: 0.158
Irinotecan + Crizotinib; first compound 20 µM
  relative viability: 0.18
Irinotecan + Phenformin; first compound 2 µM
  relative viability: 0.331
Irinotecan + Phenformin; first compound 6.325 µM
  relative viability: 0.183
Irinotecan + Phenformin; first compound 20 µM
  relative viability: 0.12

## RERF-LC-KJ
RU-SKI 43 + Phenformin; first compound 0.1 µM
  relative viability: 0.374
RU-SKI 43 + Phenformin; first compound 0.3162 µM
  relative viability: 0.418
RU-SKI 43 + Phenformin; first compound 1 µM
  relative viability: 0.347
RU-SKI 43 + Phenformin; first compound 3.162 µM
  relative viability: 0.417
RU-SKI 43 + Phenformin; first compound 10 µM
  relative viability: 0.346
MK-8033 + Tozasertib; first compound 0.02 µM
  relative viability: 0.493
MK-8033 + Tozasertib; first compound 0.06325 µM
  relative viability: 0.485
MK-8033 + Tozasertib; first compound 0.2 µM
  relative viability: 0.457
MK-8033 + Tozasertib; first compound 0.6325 µM
  relative viability: 0.393
MK-8033 + Tozasertib; first compound 2 µM
  relative viability: 0.408
Irinotecan + Crizotinib; first compound 0.6325 µM
  relative viability: 0.785
Irinotecan + Crizotinib; first compound 2 µM
  relative viability: 0.533
Irinotecan + Crizotinib; first compound 6.325 µM
  relative viability: 0.322
Irinotecan + Crizotinib; first compound 20 µM
  relative viability: 0.342
Irinotecan + Phenformin; first compound 0.6325 µM
  relative viability: 0.47
Irinotecan + Phenformin; first compound 2 µM
  relative viability: 0.325
Irinotecan + Phenformin; first compound 6.325 µM
  relative viability: 0.345
Irinotecan + Phenformin; first compound 20 µM
  relative viability: 0.246

## PC-3 [JPC-3]
RU-SKI 43 + Phenformin; first compound 0.1 µM
  relative viability: 0.466
RU-SKI 43 + Phenformin; first compound 0.3162 µM
  relative viability: 0.484
RU-SKI 43 + Phenformin; first compound 1 µM
  relative viability: 0.457
RU-SKI 43 + Phenformin; first compound 3.162 µM
  relative viability: 0.52
RU-SKI 43 + Phenformin; first compound 10 µM
  relative viability: 0.511
MK-8033 + Tozasertib; first compound 0.02 µM
  relative viability: 0.856
MK-8033 + Tozasertib; first compound 0.06325 µM
  relative viability: 0.825
MK-8033 + Tozasertib; first compound 0.2 µM
  relative viability: 0.806
MK-8033 + Tozasertib; first compound 0.6325 µM
  relative viability: 0.878
MK-8033 + Tozasertib; first compound 2 µM
  relative viability: 0.787
Irinotecan + Crizotinib; first compound 0.6325 µM
  relative viability: 0.847
Irinotecan + Crizotinib; first compound 2 µM
  relative viability: 0.493
Irinotecan + Crizotinib; first compound 6.325 µM
  relative viability: 0.332
Irinotecan + Crizotinib; first compound 20 µM
  relative viability: 0.331
Irinotecan + Phenformin; first compound 0.6325 µM
  relative viability: 0.424
Irinotecan + Phenformin; first compound 2 µM
  relative viability: 0.472
Irinotecan + Phenformin; first compound 6.325 µM
  relative viability: 0.318
Irinotecan + Phenformin; first compound 20 µM
  relative viability: 0.349

## NCI-H1355
RU-SKI 43 + Phenformin; first compound 0.1 µM
  relative viability: 0.49
RU-SKI 43 + Phenformin; first compound 0.3162 µM
  relative viability: 0.446
RU-SKI 43 + Phenformin; first compound 1 µM
  relative viability: 0.475
RU-SKI 43 + Phenformin; first compound 3.162 µM
  relative viability: 0.472
RU-SKI 43 + Phenformin; first compound 10 µM
  relative viability: 0.438
MK-8033 + Tozasertib; first compound 0.02 µM
  relative viability: 0.572
MK-8033 + Tozasertib; first compound 0.06325 µM
  relative viability: 0.524
MK-8033 + Tozasertib; first compound 0.2 µM
  relative viability: 0.513
MK-8033 + Tozasertib; first compound 0.6325 µM
  relative viability: 0.526
MK-8033 + Tozasertib; first compound 2 µM
  relative viability: 0.398
Irinotecan + Crizotinib; first compound 0.6325 µM
  relative viability: 0.896
Irinotecan + Crizotinib; first compound 2 µM
  relative viability: 0.407
Irinotecan + Crizotinib; first compound 6.325 µM
  relative viability: 0.234
Irinotecan + Crizotinib; first compound 20 µM
  relative viability: 0.233
Irinotecan + Phenformin; first compound 2 µM
  relative viability: 0.46
Irinotecan + Phenformin; first compound 6.325 µM
  relative viability: 0.278
Irinotecan + Phenformin; first compound 20 µM
  relative viability: 0.248

## NCI-H460
RU-SKI 43 + Phenformin; first compound 0.1 µM
  relative viability: 0.534
RU-SKI 43 + Phenformin; first compound 0.3162 µM
  relative viability: 0.973
RU-SKI 43 + Phenformin; first compound 1 µM
  relative viability: 0.788
RU-SKI 43 + Phenformin; first compound 3.162 µM
  relative viability: 0.575
RU-SKI 43 + Phenformin; first compound 10 µM
  relative viability: 0.467
MK-8033 + Tozasertib; first compound 0.02 µM
  relative viability: 0.392
MK-8033 + Tozasertib; first compound 0.06325 µM
  relative viability: 0.443
MK-8033 + Tozasertib; first compound 0.2 µM
  relative viability: 0.387
MK-8033 + Tozasertib; first compound 0.6325 µM
  relative viability: 0.377
MK-8033 + Tozasertib; first compound 2 µM
  relative viability: 0.108
Irinotecan + Crizotinib; first compound 0.6325 µM
  relative viability: 0.709
Irinotecan + Crizotinib; first compound 2 µM
  relative viability: 0.239
Irinotecan + Crizotinib; first compound 6.325 µM
  relative viability: 0.0835
Irinotecan + Crizotinib; first compound 20 µM
  relative viability: 0.0573
Irinotecan + Phenformin; first compound 0.6325 µM
  relative viability: 0.21
Irinotecan + Phenformin; first compound 2 µM
  relative viability: 0.272
Irinotecan + Phenformin; first compound 6.325 µM
  relative viability: 0.0796
Irinotecan + Phenformin; first compound 20 µM
  relative viability: 0.0368
